What was measured:
Type in all cases: in vivo
Bemisia tabaci = Bemisia tabaci leaf dip test (brinjal leaves, whitefly adults); settings: foliar, dead and moribund whitefly adults 72 h after release, compared to untreated controls, read-out: percent mortality
Method in brief: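 Brinjal leaves were dipped 10 s in compound diluted in 0.01% Triton-X, dried, and placed on agar, then exposed to freshly emerged whitefly adults at 25° C, 70% RH. Dead plus moribund adults were counted at 72 h, and percent mortality was calculated relative to untreated controls.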

Nilaparvata lugens = Nilaparvata lugens seedling dip test (paddy seedlings, third instar nymphs); settings: dead and moribund third instar nymphs 72 h after release, compared to untreated controls, read-out: percent mortality
Method in brief: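 Paddy seedlings dipped 10 s in compound diluted with 0.01% Triton-X, shade dried, then infested with 15 third-instar nymphs at 25 °C, 75% RH. Mortality (dead plus moribund) scored at 72 h relative to untreated controls.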

Myzus persicae = Myzus persicae leaf dip test (capsicum leaves, third instar nymphs); settings: foliar, dead and moribund third instar nymphs 72 h after release, compared to untreated controls, read-out: percent mortality
Description: The leaf dip method was used for testing, wherein the required quantity of the compound was weighed and dissolved in a tube containing a solvent solution. The tube was put on a vortex at 2000 rpm for proper mixing and then diluted with a 0.01% Triton-X solution to the desired test concentration. Capsicum leaves were dipped in the compound solution for 10 seconds, shade dried for 20 min and then placed, with the abaxial side of the leaf up, in single cells of a bio-assay tray containing 4 ml of a solidified 1% agar-agar solution. Known numbers of third instar nymphs of Myzus persicae, collected in petri plates, were released into the cell with the treated leaf and the cell was covered with a perforated lid for better aeration. The trays were kept in a plant growth chamber at a temperature of 25° C. and a relative humidity of 70%. Observations on dead, moribund and alive nymphs were recorded 72 h after the release. Percent mortality was calculated by combining dead and moribund nymphs and comparing the result with the one of the untreated controls. The compounds

SMILES: CS(C)(=O)=Nc1ccc2nn(-c3cccnc3)cc2c1 [Compound 1]
- mortality at 300 ppm (Bemisia tabaci): ≥ 70%
- mortality at 300 ppm (Nilaparvata lugens): ≥ 70%
- mortality at 300 ppm (Myzus persicae): ≥ 70%

SMILES: CCS(C)(=O)=Nc1ccc2nn(-c3cccnc3)cc2c1 (stereo not shown) [Compound 2]
- mortality at 300 ppm (Nilaparvata lugens): ≥ 70%
- mortality at 300 ppm (Myzus persicae): ≥ 70%

SMILES: CCS(=O)(CC)=Nc1ccc2nn(-c3cccnc3)cc2c1 [Compound 3]
- mortality at 300 ppm (Nilaparvata lugens): ≥ 70%
- mortality at 300 ppm (Myzus persicae): ≥ 70%

SMILES: CC(C)S(=O)(=Nc1ccc2nn(-c3cccnc3)cc2c1)C(C)C [Compound 28]
- mortality at 300 ppm (Bemisia tabaci): ≥ 70%
- mortality at 300 ppm (Nilaparvata lugens): ≥ 70%
- mortality at 300 ppm (Myzus persicae): ≥ 70%

SMILES: CCS(=O)(=Nc1ccc2nn(-c3cccnc3)cc2c1)C(C)C (stereo not shown) [Compound 29]
- mortality at 300 ppm (Bemisia tabaci): ≥ 70%
- mortality at 300 ppm (Nilaparvata lugens): ≥ 70%
- mortality at 300 ppm (Myzus persicae): ≥ 70%

SMILES: CCS(=O)(=Nc1ccc2nn(-c3cncnc3)cc2c1)C(C)C (stereo not shown) [Compound 32]
- mortality at 300 ppm (Bemisia tabaci): ≥ 70%
- mortality at 300 ppm (Nilaparvata lugens): ≥ 70%
- mortality at 300 ppm (Myzus persicae): ≥ 70%

SMILES: CCS(=O)(=Nc1ccc2nn(-c3cncc(F)c3)cc2c1)C(C)C (stereo not shown) [Compound 41]
- mortality at 300 ppm (Nilaparvata lugens): ≥ 70%
- mortality at 300 ppm (Myzus persicae): ≥ 70%

SMILES: O=S(CCC(F)(F)F)(=Nc1ccc2nn(-c3cncnc3)cc2c1)c1ccc(F)cc1 (stereo not shown) [Compound 64]
- mortality at 300 ppm (Nilaparvata lugens): ≥ 70%
- mortality at 300 ppm (Myzus persicae): ≥ 70%

SMILES: CCS(=O)(=Nc1cccc2nn(-c3cccnc3)cc12)C(C)C (stereo not shown) [Compound 71]
- mortality at 300 ppm (Bemisia tabaci): ≥ 70%
- mortality at 300 ppm (Nilaparvata lugens): ≥ 70%
- mortality at 300 ppm (Myzus persicae): ≥ 70%

SMILES: CCS(=O)(CC)=Nc1cccc2nn(-c3cccnc3)cc12 [Compound 73]
- mortality at 300 ppm (Bemisia tabaci): ≥ 70%
- mortality at 300 ppm (Nilaparvata lugens): ≥ 70%
- mortality at 300 ppm (Myzus persicae): ≥ 70%

SMILES: CS(C)(=O)=NC(=O)c1cccc2nn(-c3cccnc3)cc12 [Compound 92, N-(dimethyl(oxo)-λ^6-sulfaneylidene)-2-(pyridin-3-yl)-2H-indazole-4-carboxamide]
- mortality at 300 ppm (Nilaparvata lugens): ≥ 70%
- mortality at 300 ppm (Myzus persicae): ≥ 70%

SMILES: COc1nn(-c2ccc3nn(-c4cncc(F)c4)cc3c2)c(=O)n1C [Compound 112, 2-(2-(5-fluoropyridin-3-yl)-2H-indazol-5-yl)-5-methoxy-4-methyl-2,4-dihydro-3H-1,2,4-triazol-3-one]
- mortality at 300 ppm (Nilaparvata lugens): ≥ 70%
- mortality at 300 ppm (Myzus persicae): ≥ 70%

SMILES: CCCS(=O)(CC)=Nc1ccc2nn(-c3cccnc3)cc2c1 (stereo not shown) [Compound 137]
- mortality at 300 ppm (Nilaparvata lugens): ≥ 70%
- mortality at 300 ppm (Myzus persicae): ≥ 70%

SMILES: CS(C)(=O)=Nc1cnc2nn(-c3cccnc3)cc2c1 [Compound 146]
- mortality at 300 ppm (Nilaparvata lugens): ≥ 70%
- mortality at 300 ppm (Myzus persicae): ≥ 70%

SMILES: CCS(C)(=O)=Nc1cnc2nn(-c3cccnc3)cc2c1 (stereo not shown) [Compound 147]
- mortality at 300 ppm (Nilaparvata lugens): ≥ 70%
- mortality at 300 ppm (Myzus persicae): ≥ 70%

SMILES: CCS(=O)(=Nc1cnc2nn(-c3cccnc3)cc2c1)C(C)C (stereo not shown) [Compound 148]
- mortality at 300 ppm (Nilaparvata lugens): ≥ 70%
- mortality at 300 ppm (Myzus persicae): ≥ 70%

SMILES: COCCS(C)(=O)=Nc1ccc2nn(-c3cccnc3)cc2n1 (stereo not shown) [Compound 236]
- mortality at 300 ppm (Bemisia tabaci): ≥ 70%
- mortality at 300 ppm (Nilaparvata lugens): ≥ 70%
- mortality at 300 ppm (Myzus persicae): ≥ 70%

SMILES: CC(C)S(C)(=O)=Nc1ccc2nn(-c3cccnc3)cc2n1 (stereo not shown) [Compound 238]
- mortality at 300 ppm (Bemisia tabaci): ≥ 70%
- mortality at 300 ppm (Nilaparvata lugens): ≥ 70%
- mortality at 300 ppm (Myzus persicae): ≥ 70%

SMILES: CCS(=O)(=Nc1ccc2nn(-c3cccnc3)cc2n1)C(C)C (stereo not shown) [Compound 240]
- mortality at 300 ppm (Bemisia tabaci): ≥ 70%
- mortality at 300 ppm (Nilaparvata lugens): ≥ 70%
- mortality at 300 ppm (Myzus persicae): ≥ 70%

SMILES: CC(C)S(=O)(=Nc1ccc2nn(-c3cccnc3)cc2n1)C(C)C [Compound 255]
- mortality at 300 ppm (Bemisia tabaci): ≥ 70%
- mortality at 300 ppm (Myzus persicae): ≥ 70%

SMILES: CCC(C)S(=O)(=Nc1ccc2nn(-c3cccnc3)cc2n1)C(C)C (stereo not shown) [Compound 287]
- mortality at 300 ppm (Bemisia tabaci): ≥ 70%
- mortality at 300 ppm (Myzus persicae): ≥ 70%

SMILES: CC(C)S(=O)(CC1CC1)=Nc1ccc2nn(-c3cccnc3)cc2n1 (stereo not shown) [Compound 288]
- mortality at 300 ppm (Bemisia tabaci): ≥ 70%
- mortality at 300 ppm (Myzus persicae): ≥ 70%

SMILES: CCC(C)S(=O)(=Nc1ccc2nn(-c3cccnc3)cc2c1)C(C)C (stereo not shown) [Compound 291]
- mortality at 300 ppm (Bemisia tabaci): ≥ 70%
- mortality at 300 ppm (Myzus persicae): ≥ 70%

SMILES: CS(C)(=O)=Nc1ccc2nn(-c3cncc(F)c3)cc2n1 [Compound 306]
- mortality at 300 ppm (Bemisia tabaci): ≥ 70%
- mortality at 300 ppm (Myzus persicae): ≥ 70%

SMILES: CCS(=O)(=Nc1ccc2nn(-c3cncc(F)c3)cc2n1)C(C)C (stereo not shown) [Compound 312]
- mortality at 300 ppm (Bemisia tabaci): ≥ 70%
- mortality at 300 ppm (Myzus persicae): ≥ 70%

SMILES: CCS(C)(=O)=Nc1ccc2nn(-c3cncnc3)cc2n1 (stereo not shown) [Compound 314]
- mortality at 300 ppm (Bemisia tabaci): ≥ 70%
- mortality at 300 ppm (Myzus persicae): ≥ 70%

SMILES: CCOc1nn(-c2ccc3nn(-c4cccnc4)cc3c2)c(=O)n1Cc1ccc(F)cc1 [Compound 337, 5-ethoxy-4-(4-fluorobenzyl)-2-(2-(pyridin-3-yl)-2H-indazol-5-yl)-2,4-dihydro-3H-1,2,4-triazol-3-one]
- mortality at 300 ppm (Bemisia tabaci): ≥ 70%
- mortality at 300 ppm (Nilaparvata lugens): ≥ 70%
- mortality at 300 ppm (Myzus persicae): ≥ 70%

SMILES: COc1nn(-c2ccc3nn(-c4cccnc4)cc3c2)c(=O)n1Cc1ccc(Cl)cc1 [Compound 354, 4-(4-chlorobenzyl)-5-methoxy-2-(2-(pyridin-3-yl)-2H-indazol-5-yl)-2,4-dihydro-3H-1,2,4-triazol-3-one]
- mortality at 300 ppm (Bemisia tabaci): ≥ 70%
- mortality at 300 ppm (Nilaparvata lugens): ≥ 70%
- mortality at 300 ppm (Myzus persicae): ≥ 70%

SMILES: CCN=S(=O)(c1ccc2nn(-c3cccnc3)cc2c1)C(C)C (stereo not shown) [Compound 383]
- mortality at 300 ppm (Bemisia tabaci): ≥ 70%
- mortality at 300 ppm (Myzus persicae): ≥ 70%

SMILES: N=S(=O)(CC1CC1)c1ccc2nn(-c3cccnc3)cc2c1 (stereo not shown) [Compound 386, (cyclopropylmethyl)(imino)(2-(pyridin-3-yl)-2H-indazol-5-yl)-λ^6-sulfanone]
- mortality at 300 ppm (Bemisia tabaci): ≥ 70%
- mortality at 300 ppm (Nilaparvata lugens): ≥ 70%
- mortality at 300 ppm (Myzus persicae): ≥ 70%

SMILES: CCS(=N)(=O)c1ccc2nn(-c3cccnc3)cc2c1 (stereo not shown) [Compound 387, ethyl(imino)(2-(pyridin-3-yl)-2H-indazol-5-yl)-λ^6-sulfanone]
- mortality at 300 ppm (Bemisia tabaci): ≥ 70%
- mortality at 300 ppm (Nilaparvata lugens): ≥ 70%
- mortality at 300 ppm (Myzus persicae): ≥ 70%

SMILES: CCN=S(=O)(CC1CC1)c1ccc2nn(-c3cccnc3)cc2c1 (stereo not shown) [Compound 388]
- mortality at 300 ppm (Nilaparvata lugens): ≥ 70%
- mortality at 300 ppm (Myzus persicae): ≥ 70%

SMILES: CC(=O)N=S(=O)(c1ccc2nn(-c3cccnc3)cc2c1)C(C)C (stereo not shown) [Compound 389]
- mortality at 300 ppm (Bemisia tabaci): ≥ 70%
- mortality at 300 ppm (Nilaparvata lugens): ≥ 70%
- mortality at 300 ppm (Myzus persicae): ≥ 70%

SMILES: CCN=S(=O)(c1ccc2nn(-c3cncc(F)c3)cc2c1)C(C)C (stereo not shown) [Compound 397]
- mortality at 300 ppm (Bemisia tabaci): ≥ 70%
- mortality at 300 ppm (Nilaparvata lugens): ≥ 70%
- mortality at 300 ppm (Myzus persicae): ≥ 70%

SMILES: CC(C)S(=O)(=NC1CC1)c1ccc2nn(-c3cccnc3)cc2c1 (stereo not shown) [Compound 406]
- mortality at 300 ppm (Bemisia tabaci): ≥ 70%
- mortality at 300 ppm (Nilaparvata lugens): ≥ 70%
- mortality at 300 ppm (Myzus persicae): ≥ 70%

SMILES: CCN=S(=O)(c1ccc2nn(-c3cncnc3)cc2c1)C(C)C (stereo not shown) [Compound 419]
- mortality at 300 ppm (Bemisia tabaci): ≥ 70%
- mortality at 300 ppm (Nilaparvata lugens): ≥ 70%
- mortality at 300 ppm (Myzus persicae): ≥ 70%

SMILES: CCS(=N)(=O)c1ccc2nn(-c3cncnc3)cc2c1 (stereo not shown) [Compound 455, ethyl(imino)(2-(pyrimidin-5-yl)-2H-indazol-5-yl)-λ^6-sulfanone]
- mortality at 300 ppm (Bemisia tabaci): ≥ 70%
- mortality at 300 ppm (Myzus persicae): ≥ 70%

SMILES: CCN=S(=O)(CC)c1ccc2nn(-c3cncnc3)cc2c1 (stereo not shown) [Compound 457]
- mortality at 300 ppm (Bemisia tabaci): ≥ 70%
- mortality at 300 ppm (Nilaparvata lugens): ≥ 70%
- mortality at 300 ppm (Myzus persicae): ≥ 70%

SMILES: N=S(=O)(CC(F)(F)F)c1ccc2nn(-c3cncnc3)cc2c1 (stereo not shown) [Compound 458, imino(2-(pyrimidin-5-yl)-2H-indazol-5-yl)(2,2,2-trifluoroethyl)-λ^6-sulfanone]
- mortality at 300 ppm (Bemisia tabaci): ≥ 70%
- mortality at 300 ppm (Myzus persicae): ≥ 70%

SMILES: CCN=S(=O)(CC)c1ccc2nn(-c3cncc(F)c3)cc2c1 (stereo not shown) [Compound 461]
- mortality at 300 ppm (Bemisia tabaci): ≥ 70%
- mortality at 300 ppm (Nilaparvata lugens): ≥ 70%
- mortality at 300 ppm (Myzus persicae): ≥ 70%

SMILES: CCCS(=N)(=O)c1ccc2nn(-c3cncc(F)c3)cc2c1 (stereo not shown) [Compound 478, (2-(5-fluoropyridin-3-yl)-2H-indazol-5-yl)(imino)(propyl)-λ^6-sulfanone]
- mortality at 300 ppm (Bemisia tabaci): ≥ 70%
- mortality at 300 ppm (Myzus persicae): ≥ 70%

SMILES: CCC(C)S(=N)(=O)c1ccc2nn(-c3cncc(F)c3)cc2c1 (stereo not shown) [Compound 479, sec-butyl(2-(5-fluoropyridin-3-yl)-2H-indazol-5-yl)(imino)-λ^6-sulfanone]
- mortality at 300 ppm (Bemisia tabaci): ≥ 70%
- mortality at 300 ppm (Myzus persicae): ≥ 70%

SMILES: CCC(CC)S(=N)(=O)c1ccc2nn(-c3cncc(F)c3)cc2c1 (stereo not shown) [Compound 480, (2-(5-fluoropyridin-3-yl)-2H-indazol-5-yl)(imino)(pentan-3-yl)-λ^6-sulfanone]
- mortality at 300 ppm (Bemisia tabaci): ≥ 70%
- mortality at 300 ppm (Myzus persicae): ≥ 70%

SMILES: N=S(=O)(CCCF)c1ccc2nn(-c3cncc(F)c3)cc2c1 (stereo not shown) [Compound 482, (3-fluoropropyl)(2-(5-fluoropyridin-3-yl)-2H-indazol-5-yl)(imino)-λ^6-sulfanone]
- mortality at 300 ppm (Bemisia tabaci): ≥ 70%
- mortality at 300 ppm (Myzus persicae): ≥ 70%

SMILES: CC(C)CS(=N)(=O)c1ccc2nn(-c3cccnc3)cc2c1 (stereo not shown) [Compound 557, imino(isobutyl)(2-(pyridin-3-yl)-2H-indazol-5-yl)-λ^6-sulfanone]
- mortality at 300 ppm (Bemisia tabaci): ≥ 70%
- mortality at 300 ppm (Myzus persicae): ≥ 70%

Reference: US20250282754A1, “BICYCLIC COMPOUNDS AND THEIR USE AS PEST CONTROL AGENTS” (Pl Industries Ltd., priority 2022, published 2025)
